Activity calls are given as the source filed them. No cut-off for these calls is given here.
Assays:
HepG2 = experiment: Induction of cytoplasmic lipid accumulation in human HepG2 cells at 10 uM after 4 days by oil red O staining-based light microscopic analysis; type: cell-based; conditions: hepg2, 96 h
[1] = molecular target: T1, Oxysterols receptor LXR-alpha (Homo sapiens) (UniProt Q13133); experiment: Agonist activity at human LXRalpha transfected in HEK293 cells at 0.1 uM after 24 hrs by luciferase reporter gene assay relative to vehicle-treated control; type: cell-based
T1 sequence (whole entry): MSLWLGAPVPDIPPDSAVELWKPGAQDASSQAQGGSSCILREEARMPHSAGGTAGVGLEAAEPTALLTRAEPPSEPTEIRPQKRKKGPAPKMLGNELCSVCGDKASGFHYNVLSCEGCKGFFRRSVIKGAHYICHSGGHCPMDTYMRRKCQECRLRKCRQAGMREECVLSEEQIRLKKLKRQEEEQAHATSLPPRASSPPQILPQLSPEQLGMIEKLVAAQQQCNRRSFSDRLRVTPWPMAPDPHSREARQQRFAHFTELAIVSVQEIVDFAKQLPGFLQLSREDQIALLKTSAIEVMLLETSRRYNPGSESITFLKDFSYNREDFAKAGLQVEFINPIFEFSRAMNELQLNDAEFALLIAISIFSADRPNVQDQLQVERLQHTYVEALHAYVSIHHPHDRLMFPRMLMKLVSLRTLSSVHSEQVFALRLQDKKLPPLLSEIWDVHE

[2] = molecular target: T2, Oxysterols receptor LXR-beta (Mus musculus) (UniProt Q60644); experiment: Agonist activity at LXRbeta in mouse RAW264.7 cells assessed as upregulation of ABCA1 protein expression at 1 uM after 18 to 48 hrs by Western blot analysis; type: cell-based
T2 sequence (whole entry): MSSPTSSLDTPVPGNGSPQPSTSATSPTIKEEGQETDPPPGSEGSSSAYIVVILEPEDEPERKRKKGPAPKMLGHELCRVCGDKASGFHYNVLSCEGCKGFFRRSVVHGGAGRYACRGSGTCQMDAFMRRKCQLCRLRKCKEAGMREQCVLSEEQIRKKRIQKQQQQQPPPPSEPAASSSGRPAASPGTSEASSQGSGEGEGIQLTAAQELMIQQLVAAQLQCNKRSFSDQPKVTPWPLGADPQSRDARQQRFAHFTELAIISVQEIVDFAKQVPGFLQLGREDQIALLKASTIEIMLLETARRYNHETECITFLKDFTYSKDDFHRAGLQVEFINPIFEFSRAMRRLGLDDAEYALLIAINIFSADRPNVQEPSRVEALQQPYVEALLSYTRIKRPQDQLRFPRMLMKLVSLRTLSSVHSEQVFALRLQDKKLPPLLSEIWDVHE

Mus musculus [3] = experiment: (§1) Antialzheimer activity in double transgenic B6C3 mouse overexpressing APP swedish mutant and PSEN1dE9 assessed as reduction of insoluble amyloid beta42 level at 10 mg/kg, ip administered 3 times per week measured after 6 weeks by ELISA relative to vehicle-treated control; type: functional; design: scale not given: the % may be the effect or the level left; conditions: route intraperitoneal
BV-2 [4] = experiment: Cytotoxicity against mouse BV2 cells assessed as inhibition of cell viability at 50 uM after 48 hrs by SRB assay relative to vehicle-treated control; type: cell-based; conditions: bv-2, 48 h
Mus musculus [5] = experiment: Antialzheimer activity in double transgenic B6C3 mouse overexpressing APP swedish mutant and PSEN1dE9 assessed as upregulation of ABCA1 protein expression in brain at 10 mg/kg, ip administered 3 times per week measured after 6 weeks by Western blot analysis relative to vehicle-treated control; type: functional; conditions: route intraperitoneal
Mus musculus [6] = experiment: Antialzheimer activity in double transgenic B6C3 mouse overexpressing APP swedish mutant and PSEN1dE9 assessed as upregulation of apoE protein expression in brain at 10 mg/kg, ip administered 3 times per week measured after 6 weeks by Western blot analysis relative to vehicle-treated control; type: functional; conditions: route intraperitoneal
[7] = molecular target: T2, Oxysterols receptor LXR-beta (Mus musculus); experiment: Agonist activity at LXRbeta in mouse BV2 cells assessed as upregulation of apoE protein expression at 1 uM after 48 hrs by Western blot analysis relative to vehicle-treated control; type: cell-based; conditions: BV-2
[8] = molecular target: T2, Oxysterols receptor LXR-beta (Mus musculus); experiment: Agonist activity at LXRbeta in mouse BV2 cells assessed as upregulation of apoE protein expression at 0.1 uM after 48 hrs by Western blot analysis relative to vehicle-treated control; type: cell-based; conditions: BV-2
[9] = molecular target: T2, Oxysterols receptor LXR-beta (Mus musculus); experiment: Agonist activity at LXRbeta in mouse BV2 cells assessed as degradation of intracellular amyloid beta42 preincubated for 18 hrs followed by soluble amyloid beta42 addition measured after 24 hrs by ELISA; type: cell-based; conditions: BV-2
Mus musculus [10] = experiment: as §1, with “of” for “of insoluble”, “plaque load in cortex” for “level”, “OC staining-based fluorescence microscopic analysis” for “ELISA”; type: functional; design: scale not given: the % may be the effect or the level left; conditions: route intraperitoneal
HEK293 = experiment: Cytotoxicity against HEK293 cells assessed as inhibition of cell viability at 50 uM after 48 hrs by SRB assay relative to vehicle-treated control; type: cell-based; conditions: human, hek293, 48 h
[11] = molecular target: T3, Oxysterols receptor LXR-beta (Homo sapiens) (UniProt P55055); experiment: Agonist activity at human LXRbeta transfected in HEK293 cells at 0.1 uM after 24 hrs by luciferase reporter gene assay relative to vehicle-treated control; type: cell-based
T3 sequence (whole entry): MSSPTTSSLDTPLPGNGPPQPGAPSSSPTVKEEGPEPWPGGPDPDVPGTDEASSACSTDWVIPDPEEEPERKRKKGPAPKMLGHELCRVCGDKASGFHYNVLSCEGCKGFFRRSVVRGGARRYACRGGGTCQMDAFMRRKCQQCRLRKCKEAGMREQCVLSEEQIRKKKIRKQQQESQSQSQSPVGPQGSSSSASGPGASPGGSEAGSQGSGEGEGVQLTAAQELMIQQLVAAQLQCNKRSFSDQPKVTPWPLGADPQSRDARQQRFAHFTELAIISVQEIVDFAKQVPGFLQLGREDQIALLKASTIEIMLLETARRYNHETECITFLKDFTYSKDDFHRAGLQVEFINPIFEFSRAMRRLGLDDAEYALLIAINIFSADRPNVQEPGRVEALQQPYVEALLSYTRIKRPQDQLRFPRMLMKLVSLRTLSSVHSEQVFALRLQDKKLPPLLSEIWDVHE

BV-2 [12] = experiment: Upregulation of IDE mRNA expression in mouse BV2 cells at 0.01 to 1 uM after 18 hrs by real-time qPCR analysis; type: functional, cell-based
[13] = molecular target: T2, Oxysterols receptor LXR-beta (Mus musculus); experiment: Agonist activity at LXRbeta in mouse RAW264.7 cells assessed as induction of ABCA1 promoter activation at 1 uM after 24 hrs by Dual-Glo luciferase reporter gene assay relative to vehicle-treated control; type: cell-based
BV-2 [14] = experiment: Upregulation of NEP mRNA expression in mouse BV2 cells at 0.01 to 1 uM after 18 hrs by real-time qPCR analysis; type: functional, cell-based
Mus musculus [15] = experiment: as §1, with “of” for “of insoluble”, “plaque load in hippocampus” for “level”, “OC staining-based fluorescence microscopic analysis” for “ELISA”; type: functional; design: scale not given: the % may be the effect or the level left; conditions: route intraperitoneal

Cc1ccc(/C=C/C(=O)c2ccc(N)cc2O)o1
Activity (HepG2): Toxic | fold change (FC) [1]: 0.99 | Activity [2]: Active | Activity (Mus musculus [3]): 26% | Activity (BV-2 [4]): Non-toxic | fold change (FC) (Mus musculus [5]): 2.3 | fold change (FC) (Mus musculus [6]): 1.6 | fold change (FC) [7]: 1.9 | fold change (FC) [8]: 1.6 | Activity [9]: Dose-dependent effect | Activity (Mus musculus [10]): 30% | Activity (HEK293): Non-toxic | fold change (FC) [11]: 1.07 | Activity (BV-2 [12]): inactive | fold change (FC) [13]: 2.09 | Activity (BV-2 [14]): inactive | Activity (Mus musculus [15]): 28%

Reference: ChEMBL document CHEMBL2417463, “Synthesis and identification of new flavonoids targeting liver X receptor β involved pathway as potential facilitators of Aβ clearance with reduced lipid accumulation” (J Med Chem, 2013)
